{"source": "patent US7071231B2", "about": "“Naphthalene ureas as glucose uptake enhancers” (Telik, Inc., priority 1999, dated 2006)", "key": {"[1]": {"target": "T1, β-kinase domain of the human insulin receptor (CKD) (Homo sapiens, UniProt P06213)", "T1 construct": "The complete β-kinase domain of the human insulin receptor (CKD) was expressed in, and purified from, baculovirus; made in house", "T1 sequence (P06213 980-1382 limits assumed)": "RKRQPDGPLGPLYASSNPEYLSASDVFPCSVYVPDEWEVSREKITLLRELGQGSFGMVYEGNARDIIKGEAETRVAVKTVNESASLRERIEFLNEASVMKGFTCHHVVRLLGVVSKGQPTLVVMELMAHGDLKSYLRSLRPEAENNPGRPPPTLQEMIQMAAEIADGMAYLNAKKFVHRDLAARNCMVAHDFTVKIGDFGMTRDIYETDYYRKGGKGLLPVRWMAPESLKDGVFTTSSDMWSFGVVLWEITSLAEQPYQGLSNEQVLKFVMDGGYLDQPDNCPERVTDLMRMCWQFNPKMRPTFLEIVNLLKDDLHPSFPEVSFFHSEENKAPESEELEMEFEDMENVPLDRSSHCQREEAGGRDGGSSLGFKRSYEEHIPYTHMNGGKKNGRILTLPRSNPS", "assay": "32P-cytoplasmic kinase domain (CKD) autophosphorylation assay", "assay_type": "biochemical", "settings": "phosphorylation of CKD expressed as % of the vehicle level; 10 minutes at room temperature; compound concentration not given", "description": "^32P-cytoplasmic Kinase Domain (CKD) Autophosphorylation Assay The insulin signaling pathway is activated through stimulation of the insulin receptor. A major component of this activation is the phosphorylation of a specific portion of the receptor called the β-kinase domain. The complete β-kinase domain of the human insulin receptor (CKD) was expressed in, and purified from, baculovirus. CKD (4.0μg/ml), in a solution of 29 mM HEPES (pH 7.6), 0.05% Triton X-100, 10 mM MgCl2, 2 mM MnCl2 (50 μl final volume), was combined with 50 μM ATP, and 5 μCi ^32P-ATP (3000Ci/mmol.). A test compound, or the vehicle (dimethyl sulfoxide (DMSO)) was added to a final DMSO concentration of 1%. The mixture was incubated for 10 minutes at room temperature. The reaction was terminated by the addition of 10 μl 200 mM EDTA. A 30 μl volume was removed, mixed with 5 μl of 6× Laemmeli sodium dodecyl sulfate (SDS) treatment buffer, and heated to 94° C. for 5 minutes. A 20 μl aliquot was then run an SDS-PAGE gel. The radioactivity incorporated into the CKD band was quantified by phosphorimaging of the gel, or scintillation counting of the excised bands. The potency of a compound for increasing phosphorylation was expressed as % of the vehicle level."}, "[2]": {"test_system": "Salmonella typhimurium strains, TA100, TA1535, and TA1537", "assay": "Ames test, Salmonella typhimurium strains", "settings": "50 to 5000 μg/plate, without and with induced rat liver S-9 plus cofactors"}, "3T3 L1 fibroblasts": {"test_system": "3T3 L1 fibroblasts", "assay": "Glucose transport activity assay (14C-2-deoxy-D-glucose uptake)", "assay_type": "cell-based", "settings": "for EC (150% of vehicle control): Mus musculus", "how_it_was_run": "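Differentiated 3T3 L1 adipocytes (IBMX/dexamethasone/insulin induction), serum-starved overnight, preincubated 30 min at 37 °C with compound ± insulin in pH 7.4 salt buffer, then 30 min with 5 μCi/ml 14C-2-deoxy-D-glucose. Lysate radioactivity counted; EC = concentration raising uptake above 150% of vehicle control.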"}, "[3]": {"test_system": "Escherichia coli strain WP2uvrA", "assay": "Ames test, Escherichia coli strain", "settings": "50 to 5000 μg/plate, without and with induced rat liver S-9 plus cofactors"}, "STZ/HFD rat": {"test_system": "STZ/HFD rat", "assay": "Blood glucose determination in the STZ/HFD rat model of Type 2 diabetes", "assay_type": "in vivo", "settings": "STZ/HFD rat model, oral compound administration (30 mg/kg)", "excerpt": "Blood Glucose Determination in the STZ/HFD Rat Model of Type 2 Diabetes\nRepresentative compounds were also profiled in genetically normal rats given a high-fat diet followed by treatment with a low dose of streptozotocin (STZ/HFD). This treatment regimen recreates both the insulin resistance and the hyperglycemia seen in human Type 2 diabetes. Male CD rats (Jackson Labs, Bar Harbor Me.) were maintained according to NIH guidelines, housed two per cage, and fed either standard lab chow (Tekland Laboratory Diets, James Grain, San Jose, Calif.) or the same chow supplemented with chocolate bars, cookies, and potato chips such that their final diet contained 30% fat by weight (high-fat diet; HFD). After two weeks of this diet, the animals were given an injection of freshly-prepared streptozotocin (35 mg/kg, i.p.) and continued on the HFD. Animals that achieved glucose levels of 190 to 380 mg/dl were used in this study. At the end of the 12-hour light/dark cycle, and just prior to the experiment, the animals were moved to new cages with no food available until 4 hours after treatment. The compound or vehicle (PBS) was given p.o. by gavage, and blood was sampled by approved IACUC protocol using tail cap method. Glucose was determined using the Glucometer Elite (Bayer, Elkhart, Ind.).\nThe reduction was maximal (20%) 4 hours after the administration of Compound 15."}, "human insulin receptor": {"target": "T2, human insulin receptor (Homo sapiens, UniProt P06213)", "T2 construct": "expressed in transfected cells; host or cells: NIH 3T3 (3T3HIR)", "T2 sequence (P06213 763-1382 limits assumed)": "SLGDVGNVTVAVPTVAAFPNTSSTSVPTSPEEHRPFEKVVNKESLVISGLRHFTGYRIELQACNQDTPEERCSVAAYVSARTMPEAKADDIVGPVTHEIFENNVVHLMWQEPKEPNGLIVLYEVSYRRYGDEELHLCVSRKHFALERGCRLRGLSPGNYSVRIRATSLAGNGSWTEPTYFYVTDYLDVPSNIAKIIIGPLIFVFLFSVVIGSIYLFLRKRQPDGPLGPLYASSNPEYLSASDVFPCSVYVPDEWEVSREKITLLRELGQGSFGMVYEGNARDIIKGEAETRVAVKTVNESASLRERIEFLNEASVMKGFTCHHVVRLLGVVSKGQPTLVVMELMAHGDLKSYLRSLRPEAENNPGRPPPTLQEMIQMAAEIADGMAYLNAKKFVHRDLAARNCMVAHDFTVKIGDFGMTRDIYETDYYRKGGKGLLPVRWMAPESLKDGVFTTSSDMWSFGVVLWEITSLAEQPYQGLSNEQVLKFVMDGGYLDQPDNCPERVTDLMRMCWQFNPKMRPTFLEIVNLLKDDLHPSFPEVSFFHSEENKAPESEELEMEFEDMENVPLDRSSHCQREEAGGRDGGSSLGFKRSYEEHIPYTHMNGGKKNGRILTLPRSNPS", "T2 sequence (P06213 28-758 partner limits assumed)": "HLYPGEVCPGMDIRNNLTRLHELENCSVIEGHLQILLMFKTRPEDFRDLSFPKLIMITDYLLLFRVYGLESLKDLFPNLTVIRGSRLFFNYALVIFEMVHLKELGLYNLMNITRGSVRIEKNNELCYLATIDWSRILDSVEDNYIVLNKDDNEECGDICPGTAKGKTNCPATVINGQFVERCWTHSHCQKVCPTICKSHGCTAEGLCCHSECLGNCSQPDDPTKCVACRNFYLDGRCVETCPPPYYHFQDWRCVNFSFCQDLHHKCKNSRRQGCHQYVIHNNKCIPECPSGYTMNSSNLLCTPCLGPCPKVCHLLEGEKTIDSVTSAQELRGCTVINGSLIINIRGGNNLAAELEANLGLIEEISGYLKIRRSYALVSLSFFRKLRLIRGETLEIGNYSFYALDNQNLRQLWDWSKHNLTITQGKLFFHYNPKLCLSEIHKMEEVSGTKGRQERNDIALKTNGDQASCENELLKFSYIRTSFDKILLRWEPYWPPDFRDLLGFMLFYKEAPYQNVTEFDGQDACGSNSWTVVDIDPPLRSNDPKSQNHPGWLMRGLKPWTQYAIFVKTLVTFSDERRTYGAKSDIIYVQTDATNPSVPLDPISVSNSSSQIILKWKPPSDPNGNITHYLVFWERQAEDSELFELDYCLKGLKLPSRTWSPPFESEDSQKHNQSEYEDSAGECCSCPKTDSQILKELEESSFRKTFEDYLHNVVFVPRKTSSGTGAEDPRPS", "assay": "Whole-cell phosphorylation assay (3T3HIR cells)", "assay_type": "cell-based", "settings": "15 min, anti-phosphotyrosine Western, various concentrations (FIG. 2)", "description": "Whole-cell Phosphorylation Assay:\nThe initial step in insulin signaling is phosphorylation of the insulin receptor in response to insulin binding. NIH 3T3 cells overexpressing human insulin receptor (3T3HIR) were grown for 2 days at a density of 2×10^5/ml cells in 6 well culture dishes in DMEM with 10% FBS and L-glutamine. Prior to the experiment the cells were serum-starved overnight with DMEM with 0.1% BSA. The following morning, the cells were washed with PBS and the medium was replaced with 150 mM NaCl, 1.7 mM KCl, 0.9 mM CaCl2, K2HPO4 (pH 7.4), to which were added either the experimental compounds, or their vehicle (DMSO). Insulin or its vehicle (0.01% BSA) was diluted in the assay buffer (containing test compound or vehicle, respectively) to a final concentration of 2.5 nM. After incubating for 15 min, the cells were washed with cold PBS twice and lysed in 50 mM Tris.HCl, pH 7.4 150 mM NaCl, 0.25% sodium deoxycholate, 1% NP-40, 1 mM EGTA, 1 mM PMSF, 1 mM Na3VO4, 1 mM NaF, 1 ug/ml each of Aprotinin, Leupeptin and Pepstatin. The cell lysates were clarified by centrifugation at 12000 rpm, and the supernatants were estimated for protein concentration. Total cell lysate ([…]) was boiled with 2× SDS-PAGE sample buffer for 3 min and loaded into 7.5% SDS-PAGE along with Amersham rainbow marker protein as a molecular weight standard. […]"}, "3T3 L1 adipocytes": {"test_system": "3T3 L1 adipocytes", "assay": "Effect of Wortmannin and Cytochalasin on glucose uptake", "assay_type": "cell-based", "settings": "Cytochalasin B 10 μM; stimulation by Compound 15 alone or Compound 15 plus 5.6 nM insulin", "description": "Effect of Wortmannin and Cytochalasin on Glucose Uptake:\nThe glucose transport pathway stimulated by insulin involves activation of PI3 Kinase. Wortmannin is a selective inhibitor of PI3 Kinase and inhibits insulin-stimulated glucose transport. 3T3 L1 adipocytes were pretreated with 100 nM Wortmannin and stimulated with the compounds in the presence or absence of insulin. […] Insulin-stimulated glucose transport is mediated by glucose transporter proteins. Cytochalasin B is an inhibitor of glucose transporters and inhibits insulin-stimulated glucose uptake."}, "[4]": {"settings": "EC (effective concentration) for increase in glucose transport, 14C-2-deoxy-D-glucose, 3T3 L1 cells, read-out: Concentration (μM) to reach >150% activity of vehicle control"}}, "note": "Counter-ions that a name gives are not always drawn. Like-named read-outs stand apart in the source and are kept apart here."}
{"smiles": "O=C(Nc1ccc2c(O)cc(S(=O)(=O)O)cc2c1)Nc1ccc2c(O)cc(S(=O)(=O)O)cc2c1", "note": "[Compound 4, 4-hydroxy-7-{[(5-hydroxy-7-sulfo(2-naphthyl))amino]carbonylamino}naphthalene-2-sulfonic acid disodium salt]", "values": [{"measurement": "% Activity vs. Control", "setting": "[1]", "result": 152, "unit": "%"}, {"measurement": "mutagenicity (revertant colonies), histidine operon", "setting": "[2]", "result": "negative"}, {"measurement": "EC (150% of vehicle control)", "setting": "3T3 L1 fibroblasts; 3T3-L1, read-out: Concentration (μM) to reach >150% activity of vehicle control", "result": 32, "unit": "µM"}, {"measurement": "mutagenicity (revertant colonies), tryptophan operon", "setting": "[3]", "result": "negative"}]}
{"smiles": "O=C(Nc1ccc2ccc(S(=O)(=O)Nc3cccc(S(=O)(=O)O)c3)cc2c1)Nc1ccc2ccc(S(=O)(=O)Nc3cccc(S(=O)(=O)O)c3)cc2c1", "note": "[Compound 13, 3-{[(7-{[N-(7-{[(3-sulfophenyl)amino]sulfonyl}-2-naphthyl)carbamoyl]amino}-2-naphthyl)sulfonyl]amino}benzenesulfonic acid disodium salt]", "values": [{"measurement": "% Activity vs. Control", "setting": "[1]", "result": 135, "unit": "%"}, {"measurement": "% Reduction in Blood Glucose (maximal reduction)", "setting": "STZ/HFD rat", "result": 20, "unit": "%"}, {"measurement": "Time (h) at which maximal reduction in blood glucose occurred", "setting": "STZ/HFD rat", "result": 1, "unit": "h"}, {"measurement": "glucose uptake of cells", "setting": "3T3 L1 fibroblasts; in the presence or absence of insulin (FIG. 3)", "result": "increase in glucose uptake of cells"}, {"measurement": "autophosphorylation of the insulin receptor in whole cells", "setting": "human insulin receptor", "result": "increase of autophosphorylation"}]}
{"smiles": "O=C(Nc1ccc2c(O)cc(S(=O)(=O)Nc3ccc(C(=O)O)cc3)cc2c1)Nc1ccc2c(O)cc(S(=O)(=O)Nc3ccc(C(=O)O)cc3)cc2c1", "note": "[Compound 29, 4-{[(7-{[N-(7-{[(4-carboxyphenyl)amino]sulfonyl}-5-hydroxy(2-naphthyl))carbamoyl]amino}-4-hydroxy-2-naphthyl)sulfonyl]amino}benzoic acid]", "values": [{"measurement": "% Activity vs. Control", "setting": "[1]", "result": 106, "unit": "%"}, {"measurement": "% Reduction in Blood Glucose (maximal reduction)", "setting": "STZ/HFD rat", "result": 18, "unit": "%"}, {"measurement": "Time (h) at which maximal reduction in blood glucose occurred", "setting": "STZ/HFD rat", "result": 6, "unit": "h"}, {"measurement": "EC (150% of vehicle control)", "setting": "3T3 L1 fibroblasts; [4]", "result": 3.2, "unit": "µM"}]}
{"smiles": "COC(=O)c1cccc(NS(=O)(=O)c2cc(O)c3ccc(NC(=O)Nc4ccc5c(O)cc(S(=O)(=O)Nc6cccc(C(=O)OC)c6)cc5c4)cc3c2)c1", "note": "[Compound 41, methyl 3-({[4-hydroxy-7-({[5-hydroxy-7-({[3-(methoxycarbonyl)phenyl]amino}sulfonyl)(2-naphthyl)]amino}carbonylamino)-2-naphthyl]sulfonyl}amino)benzoate]", "values": [{"measurement": "% Activity vs. Control", "setting": "[1]", "result": 109, "unit": "%"}, {"measurement": "% Reduction in Blood Glucose (maximal reduction)", "setting": "STZ/HFD rat", "result": 20, "unit": "%"}, {"measurement": "Time (h) at which maximal reduction in blood glucose occurred", "setting": "STZ/HFD rat", "result": 4, "unit": "h"}, {"measurement": "EC (150% of vehicle control)", "setting": "3T3 L1 fibroblasts; [4]", "result": 32, "unit": "µM"}]}
{"smiles": "O=C(Nc1ccc2ccc(S(=O)(=O)Nc3ccc(Cl)c(C(=O)O)c3)cc2c1)Nc1ccc2ccc(S(=O)(=O)Nc3ccc(Cl)c(C(=O)O)c3)cc2c1", "note": "[Compound 48, 5-{[(7-{[N-(7-{[(3-carboxy-4-chlorophenyl)amino]sulfonyl}(2-naphthyl))carbamoyl]amino}(2-naphthyl))sulfonyl]amino}-2-chlorobenzoic acid]", "values": [{"measurement": "% Reduction in Blood Glucose (maximal reduction)", "setting": "STZ/HFD rat", "result": 24, "unit": "%"}, {"measurement": "Time (h) at which maximal reduction in blood glucose occurred", "setting": "STZ/HFD rat", "result": 2, "unit": "h"}, {"measurement": "EC (150% of vehicle control)", "setting": "3T3 L1 fibroblasts; [4]", "result": 3.2, "unit": "µM"}]}
{"smiles": "O=C(Nc1ccc2c(O)cc(S(=O)(=O)Nc3ccc(Cl)c(S(=O)(=O)O)c3)cc2c1)Nc1ccc2c(O)cc(S(=O)(=O)Nc3ccc(Cl)c(S(=O)(=O)O)c3)cc2c1", "note": "[Compound 93, 2-chloro-5-{[(7-{[(7-{[(4-chloro-3-sulfophenyl)amino]sulfonyl}-5-hydroxy(2-naphthyl))amino]carbonylamino}-4-hydroxy(2-naphthyl))sulfonyl]amino}benzenesulfonic acid]", "values": [{"measurement": "% Reduction in Blood Glucose (maximal reduction)", "setting": "STZ/HFD rat", "result": 25, "unit": "%"}, {"measurement": "Time (h) at which maximal reduction in blood glucose occurred", "setting": "STZ/HFD rat", "result": 4, "unit": "h"}, {"measurement": "EC (150% of vehicle control)", "setting": "3T3 L1 fibroblasts; [4]", "result": 3.2, "unit": "µM"}]}
{"smiles": "C=C1[C@@H](C)[C@H]2[C@H](Cc3ccccc3)NC(=O)[C@]23OC(=O)/C=C/[C@H](O)CCC[C@@H](C)C/C=C/[C@H]3[C@@H]1O", "note": "[Cytochalasin B]", "values": [{"measurement": "effect on stimulation of glucose transport", "setting": "3T3 L1 adipocytes", "result": "inhibited the stimulation of glucose transport"}]}
